In the NIST ThermoML archive (doi:10.1021/je201009c):
Numbers after ± are expanded uncertainties.

Test: xn = mol fraction of the nth substance listed
Details: for surface tension liquid-gas: Capillary rise; for viscosity / mass density: 100.8 kPa, Liquid; for viscosity: Falling or rolling sphere viscometry; for mass density: Vibrating tube method

CC(=O)OCc1ccccc1 [benzyl ethanoate] + CCO
Details	mass density [kg/m3]	surface tension liquid-gas [mN/m]	viscosity [mPa·s]
293.15 K, x2 = 0	1055.81 ± 0.3	37.3 ± 0.5	2.324 ± 0.026
293.15 K, x2 = 0.0502	1050.61 ± 0.28	36.3 ± 0.4	2.18 ± 0.025
293.15 K, x2 = 0.1	1044.89 ± 0.27	35.4 ± 0.4	2.063 ± 0.024
293.15 K, x2 = 0.1498	1038.77 ± 0.25	34.4 ± 0.4	1.962 ± 0.023
293.15 K, x2 = 0.1998	1032.15 ± 0.24	33.4 ± 0.4	1.879 ± 0.023
293.15 K, x2 = 0.2499	1025.14 ± 0.23	32.5 ± 0.4	1.808 ± 0.022
293.15 K, x2 = 0.2998	1017.51 ± 0.22	31.6 ± 0.4	1.736 ± 0.022
293.15 K, x2 = 0.35	1009.27 ± 0.21	30.8 ± 0.4	1.672 ± 0.021
293.15 K, x2 = 0.4	1000.55 ± 0.21	30 ± 0.4	1.613 ± 0.021
293.15 K, x2 = 0.4501	991.15 ± 0.21	29.3 ± 0.4	1.551 ± 0.02
293.15 K, x2 = 0.5	980.94 ± 0.22	28.6 ± 0.4	1.49 ± 0.02
293.15 K, x2 = 0.5499	969.73 ± 0.21	27.9 ± 0.4	1.439 ± 0.02
293.15 K, x2 = 0.6	957.31 ± 0.21	27.2 ± 0.4	1.392 ± 0.019
293.15 K, x2 = 0.65	943.77 ± 0.21	26.7 ± 0.4	1.347 ± 0.019
293.15 K, x2 = 0.7	928.69 ± 0.2	26.2 ± 0.4	1.305 ± 0.019
293.15 K, x2 = 0.7499	912.06 ± 0.2	25.8 ± 0.4	1.267 ± 0.019
293.15 K, x2 = 0.7999	893.44 ± 0.2	25.2 ± 0.4	1.232 ± 0.019
293.15 K, x2 = 0.85	872.42 ± 0.2	24.5 ± 0.4	1.202 ± 0.018
293.15 K, x2 = 0.9	848.54 ± 0.19	23.8 ± 0.4	1.188 ± 0.018
293.15 K, x2 = 0.95	821.38 ± 0.19	23.1 ± 0.4	1.178 ± 0.018
303.15 K, x2 = 0	1046.74 ± 0.29	35.6 ± 0.4	1.836 ± 0.023
303.15 K, x2 = 0.0502	1041.18 ± 0.28	34.8 ± 0.4	1.75 ± 0.022
303.15 K, x2 = 0.1	1035.33 ± 0.26	34 ± 0.4	1.663 ± 0.022
303.15 K, x2 = 0.1498	1029.09 ± 0.25	33.2 ± 0.4	1.595 ± 0.021
303.15 K, x2 = 0.1998	1022.42 ± 0.24	32.4 ± 0.4	1.534 ± 0.021
303.15 K, x2 = 0.2499	1015.3 ± 0.22	31.6 ± 0.4	1.477 ± 0.02
303.15 K, x2 = 0.2998	1007.78 ± 0.22	30.8 ± 0.4	1.42 ± 0.02
303.15 K, x2 = 0.35	999.68 ± 0.21	30 ± 0.4	1.375 ± 0.02
303.15 K, x2 = 0.4	990.86 ± 0.21	29.2 ± 0.4	1.327 ± 0.019
303.15 K, x2 = 0.4501	981.38 ± 0.21	28.5 ± 0.4	1.281 ± 0.019
303.15 K, x2 = 0.5	971.11 ± 0.22	27.8 ± 0.4	1.233 ± 0.019
303.15 K, x2 = 0.5499	959.94 ± 0.21	27.1 ± 0.4	1.194 ± 0.019
303.15 K, x2 = 0.6	947.61 ± 0.21	26.4 ± 0.4	1.151 ± 0.018
303.15 K, x2 = 0.65	933.97 ± 0.21	25.8 ± 0.4	1.115 ± 0.018
303.15 K, x2 = 0.7	919.03 ± 0.21	25.2 ± 0.4	1.077 ± 0.018
303.15 K, x2 = 0.7499	902.5 ± 0.2	24.8 ± 0.4	1.038 ± 0.018
303.15 K, x2 = 0.7999	883.9 ± 0.2	24.2 ± 0.4	1.009 ± 0.018
303.15 K, x2 = 0.85	863.07 ± 0.2	23.6 ± 0.4	0.989 ± 0.018
303.15 K, x2 = 0.9	839.36 ± 0.19	22.9 ± 0.4	0.982 ± 0.018
303.15 K, x2 = 0.95	812.21 ± 0.19	22.2 ± 0.4	0.975 ± 0.018
313.15 K, x2 = 0	1037.42 ± 0.29	34.3 ± 0.4	1.474 ± 0.021
313.15 K, x2 = 0.0502	1031.85 ± 0.27	33.6 ± 0.4	1.413 ± 0.02
313.15 K, x2 = 0.1	1025.96 ± 0.26	32.8 ± 0.4	1.362 ± 0.02
313.15 K, x2 = 0.1498	1019.7 ± 0.24	32 ± 0.4	1.308 ± 0.02
313.15 K, x2 = 0.1998	1012.98 ± 0.23	31.3 ± 0.4	1.265 ± 0.019
313.15 K, x2 = 0.2499	1005.82 ± 0.22	30.5 ± 0.4	1.226 ± 0.019
313.15 K, x2 = 0.2998	998.2 ± 0.21	29.8 ± 0.4	1.181 ± 0.019
313.15 K, x2 = 0.35	989.97 ± 0.21	29.1 ± 0.4	1.143 ± 0.019
313.15 K, x2 = 0.4	981.2 ± 0.21	28.4 ± 0.4	1.101 ± 0.018
313.15 K, x2 = 0.4501	971.7 ± 0.21	27.7 ± 0.4	1.067 ± 0.018
313.15 K, x2 = 0.5	961.42 ± 0.22	27 ± 0.4	1.029 ± 0.018
313.15 K, x2 = 0.5499	950.19 ± 0.22	26.4 ± 0.4	0.999 ± 0.018
313.15 K, x2 = 0.6	937.83 ± 0.21	25.8 ± 0.4	0.964 ± 0.018
313.15 K, x2 = 0.65	924.36 ± 0.21	25.2 ± 0.4	0.93 ± 0.018
313.15 K, x2 = 0.7	909.51 ± 0.21	24.6 ± 0.4	0.891 ± 0.017
313.15 K, x2 = 0.7499	893.04 ± 0.2	24 ± 0.4	0.867 ± 0.017
313.15 K, x2 = 0.7999	874.6 ± 0.2	23.4 ± 0.4	0.841 ± 0.017
313.15 K, x2 = 0.85	853.75 ± 0.2	22.8 ± 0.4	0.823 ± 0.017
313.15 K, x2 = 0.9	830.17 ± 0.2	22.1 ± 0.4	0.812 ± 0.017
313.15 K, x2 = 0.95	803.27 ± 0.19	21.4 ± 0.4	0.808 ± 0.017
323.15 K, x2 = 0	1027.51 ± 0.28	33.2 ± 0.4	1.256 ± 0.02
323.15 K, x2 = 0.0502	1021.88 ± 0.26	32.5 ± 0.4	1.22 ± 0.019
323.15 K, x2 = 0.1	1015.97 ± 0.25	31.8 ± 0.4	1.187 ± 0.019
323.15 K, x2 = 0.1498	1009.69 ± 0.24	31.1 ± 0.4	1.154 ± 0.019
323.15 K, x2 = 0.1998	1002.94 ± 0.23	30.4 ± 0.4	1.12 ± 0.019
323.15 K, x2 = 0.2499	995.85 ± 0.22	29.6 ± 0.4	1.086 ± 0.018
323.15 K, x2 = 0.2998	988.26 ± 0.21	28.9 ± 0.4	1.05 ± 0.018
323.15 K, x2 = 0.35	980.03 ± 0.21	28.2 ± 0.4	1.015 ± 0.018
323.15 K, x2 = 0.4	971.24 ± 0.21	27.5 ± 0.4	0.979 ± 0.018
323.15 K, x2 = 0.4501	961.72 ± 0.21	26.7 ± 0.4	0.943 ± 0.018
323.15 K, x2 = 0.5	951.49 ± 0.22	26 ± 0.4	0.911 ± 0.018
323.15 K, x2 = 0.5499	940.31 ± 0.22	25.3 ± 0.4	0.882 ± 0.017
323.15 K, x2 = 0.6	927.98 ± 0.21	24.7 ± 0.4	0.853 ± 0.017
323.15 K, x2 = 0.65	914.58 ± 0.21	24.1 ± 0.4	0.825 ± 0.017
323.15 K, x2 = 0.7	899.72 ± 0.21	23.5 ± 0.4	0.795 ± 0.017
323.15 K, x2 = 0.7499	883.26 ± 0.21	22.9 ± 0.4	0.77 ± 0.017
323.15 K, x2 = 0.7999	864.86 ± 0.2	22.3 ± 0.4	0.743 ± 0.017
323.15 K, x2 = 0.85	844.15 ± 0.2	21.7 ± 0.4	0.723 ± 0.017
323.15 K, x2 = 0.9	820.71 ± 0.2	21 ± 0.4	0.704 ± 0.017
323.15 K, x2 = 0.95	794.02 ± 0.2	20.3 ± 0.4	0.692 ± 0.017
